# Measurements: patent US20070065519A1, “Copper ion-producing composition” (priority 2005, published 2007)
# Legend:
# Legionella ssp. = assay type: cell-based
# Escherichia coli = assay: germicidal testing at 0.4 ppm chlorine (Comparative Example 2); assay type: cell-based; conditions: concentration of 0.4 ppm
# Staphylococcus aureus = assay: as above; assay type: cell-based; conditions: concentration of 0.4 ppm
# [1] = time course of residual chlorine concentration in 42° C. hot water; conditions: chlorine level 0.4 ppm at start
structure (smiles),measurement,setting,value
OCl [Sodium hypochlorite],germicidal activity,Legionella ssp.,no germicidal activity
same,germicidal activity,Escherichia coli,no germicidal activity
same,germicidal activity,Staphylococcus aureus,no germicidal activity
same,residual concentration in the water (chlorine),[1]; after 30 minutes,0.3 ppm
same,residual concentration in the water (chlorine),[1]; after 60 minutes,0.2 ppm
same,residual concentration in the water (chlorine),[1]; at 90 minutes,0 ppm
